Measurements: patent US8030498B2, “Benzoylpyrazole compounds and herbicides containing them” (Ishihara Sangyo Kaisha, Ltd., priority 2005, dated 2011)

Experiments:
[1] = tested on: barnyardgrass (Echinochloa crus-galli L.); experiment: Test Example 1: foliar treatment, growth inhibition rate, barnyardgrass; assay type: in vivo; conditions: 31 g/ha active ingredient, visually observed 17th to 23rd day after application
Outline: (§1)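 Seeds were sown in upland field soil in pots. At the target leaf stage (corn 2.0–3.5; greenfoxtail 1.0–3.0; rice 1.0–2.5; wheat 1.7–3.4), the formulated compound, diluted at a water volume of 500 L/ha with 0.1 vol % spreader, was applied by small sprayer. Plants were rated by eye on days 17–23.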

[2] = tested on: crabgrass (Digitaria sanguinalis L.); experiment: Test Example 1: foliar treatment, growth inhibition rate, crabgrass; assay type: in vivo; conditions: 31 g/ha active ingredient, visually observed 17th to 23rd day after application
Outline: (§2)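 Visual scoring of growth inhibition, 0% (untreated) to 100% (complete kill), on days 17–23 following post-emergence spray of formulated compound in water (500 L/ha, 0.1 vol % spreader); plants treated at set leaf stages, e.g. corn 2.0–3.5, wheat 1.7–3.4.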

[3] = tested on: greenfoxtail (Setaria viridis L.); experiment: Test Example 1: foliar treatment, growth inhibition rate, greenfoxtail; assay type: in vivo; conditions: 31 g/ha active ingredient, visually observed 17th to 23rd day after application
Outline: (§3)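 Plants grown in upland soil in pots were sprayed on the foliage at set leaf stages (corn 2.0–3.5, greenfoxtail 1.0–3.0, rice 1.0–2.5, wheat 1.7–3.4 leaves) with wettable powder or emulsifiable concentrate formulations diluted in water at 500 L/ha plus 0.1 vol % spreader. Growth inhibition was scored visually 17–23 days later.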

[4] = tested on: redroot pigweed (Amaranthus retroflexus L.); experiment: Test Example 1: foliar treatment, growth inhibition rate, redroot pigweed; assay type: in vivo; conditions: 31 g/ha active ingredient, visually observed 17th to 23rd day after application
Outline: as §2

[5] = tested on: prickly sida (Sida spinosa L.); experiment: Test Example 1: foliar treatment, growth inhibition rate, prickly sida; assay type: in vivo; conditions: 31 g/ha active ingredient, visually observed 17th to 23rd day after application
Outline: as §2

[6] = tested on: velvetleaf (Abutilon theophrasti MEDIC.); experiment: Test Example 1: foliar treatment, growth inhibition rate, velvetleaf; assay type: in vivo; conditions: 31 g/ha active ingredient, visually observed 17th to 23rd day after application
Outline: as §1

rice (Oryza sativa L.) = experiment: Test Example 1: foliar treatment, growth inhibition rate, rice; assay type: in vivo; conditions: 31 g/ha active ingredient, visually observed 17th to 23rd day after application
Outline: as §3

wheat (Triticum spp.) = experiment: Test Example 1: foliar treatment, growth inhibition rate, wheat; assay type: in vivo; conditions: 31 g/ha active ingredient, visually observed 17th to 23rd day after application
Outline: as §3

corn (Zea mays L.) = experiment: Test Example 1: foliar treatment, growth inhibition rate, corn; assay type: in vivo; conditions: 31 g/ha active ingredient, visually observed 17th to 23rd day after application
Outline: as §3

[7] = tested on: soybean (Glycine max Merr.); experiment: Test Example 1: foliar treatment, growth inhibition rate, soybean; assay type: in vivo; conditions: 31 g/ha active ingredient, visually observed 17th to 23rd day after application
Outline: as §2

barnyardgrass = experiment: Test Example 2: soil application on the day after sowing, growth inhibition rate, barnyardgrass; assay type: in vivo, Echinochloa crus-galli L.; conditions: 250 g/ha active ingredient, observed on 19th to 24th day
Outline: (§4)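 Seeds were sown in upland field soil in pots, and on the following day compounds formulated as wettable powders or emulsifiable concentrates were diluted in water (500 liter per hectare) and sprayed onto the soil at prescribed active-ingredient doses. Growth was scored visually 19–24 days later, 0 = untreated to 100% = complete kill.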

crabgrass = experiment: Test Example 2: soil application on the day after sowing, growth inhibition rate, crabgrass; assay type: in vivo, Digitaria sanguinalis L.; conditions: 250 g/ha active ingredient, observed on 19th to 24th day
Outline: as §4

greenfoxtail = experiment: Test Example 2: soil application on the day after sowing, growth inhibition rate, greenfoxtail; assay type: in vivo, Setaria viridis L.; conditions: 250 g/ha active ingredient, observed on 19th to 24th day
Outline: as §4

redroot pigweed = experiment: Test Example 2: soil application on the day after sowing, growth inhibition rate, redroot pigweed; assay type: in vivo, Amaranthus retroflexus L.; conditions: 250 g/ha active ingredient, observed on 19th to 24th day
Outline: as §4

prickly sida = experiment: Test Example 2: soil application on the day after sowing, growth inhibition rate, prickly sida; assay type: in vivo, Sida spinosa L.; conditions: 250 g/ha active ingredient, observed on 19th to 24th day
Outline: as §4

velvetleaf = experiment: Test Example 2: soil application on the day after sowing, growth inhibition rate, velvetleaf; assay type: in vivo, Abutilon theophrasti MEDIC.; conditions: 250 g/ha active ingredient, observed on 19th to 24th day
Outline: as §4

rice = experiment: Test Example 2: soil application on the day after sowing, growth inhibition rate, rice; assay type: in vivo, Oryza sativa L.; conditions: 250 g/ha active ingredient, observed on 19th to 24th day
Outline: as §4

wheat = experiment: Test Example 2: soil application on the day after sowing, growth inhibition rate, wheat; assay type: in vivo, Triticum spp.; conditions: 250 g/ha active ingredient, observed on 19th to 24th day
Outline: as §4

corn = experiment: Test Example 2: soil application on the day after sowing, growth inhibition rate, corn; assay type: in vivo, Zea mays L.; conditions: 250 g/ha active ingredient, observed on 19th to 24th day
Outline: as §4

soybean = experiment: Test Example 2: soil application on the day after sowing, growth inhibition rate, soybean; assay type: in vivo, Glycine max Merr.; conditions: 250 g/ha active ingredient, observed on 19th to 24th day
Outline: as §4

SMILES | Growth inhibition rate (%) redroot pigweed [4] | Growth inhibition rate (%) Prickly sida [5] | Growth inhibition rate (%) Soybean [7] | Growth inhibition rate (%) Barnyardgrass [1] | Growth inhibition rate (%) Crabgrass [2] | Growth inhibition rate (%) Greenfoxtail [3] | Growth inhibition rate (%) Velvetleaf [6] | Growth inhibition rate (%) Rice (rice (Oryza sativa L.)) | Growth inhibition rate (%) Wheat (wheat (Triticum spp.)) | Growth inhibition rate (%) Corn (corn (Zea mays L.)) | Growth inhibition rate (%) Barnyardgrass (barnyardgrass) | Growth inhibition rate (%) Crabgrass (crabgrass) | Growth inhibition rate (%) Greenfoxtail (greenfoxtail) | Growth inhibition rate (%) redroot pigweed (redroot pigweed) | Growth inhibition rate (%) Prickly sida (prickly sida) | Growth inhibition rate (%) Velvetleaf (velvetleaf) | Growth inhibition rate (%) Rice (rice) | Growth inhibition rate (%) Wheat (wheat) | Growth inhibition rate (%) Corn (corn) | Growth inhibition rate (%) Soybean (soybean) | further results
CCSC(=O)Oc1c(C(=O)c2ccc(S(C)(=O)=O)c(OC(F)F)c2C)cnn1C [Compound No. 38, 5-(ethylthio)carbonyloxy-1-methylpyrazol-4-yl 3-(difluoromethoxy)-2-methyl-4-(methylsulfonyl)phenyl ketone] | 20% | 40% | 70% | – | – | – | – | – | – | – | – | – | – | – | – | – | – | – | – | – | pest or weed control at 31 g/ha ([1]; Echinochloa crus-galli): 80%; pest or weed control at 31 g/ha ([2]; Digitaria sanguinalis): 0%; pest or weed control at 31 g/ha ([3]; Setaria viridis): 30%; pest or weed control at 31 g/ha ([6]; Abutilon theophrasti): 60%; pest or weed control at 31 g/ha (rice (Oryza sativa L.); Oryza sativa): 40%; pest or weed control at 31 g/ha (wheat (Triticum spp.); Triticum): 0%; pest or weed control at 31 g/ha (corn (Zea mays L.); Zea mays): 0%; inhibition at 250 g/ha (barnyardgrass; Echinochloa crus-galli): 90%; inhibition at 250 g/ha (crabgrass; Digitaria sanguinalis): 95%; inhibition at 250 g/ha (greenfoxtail; Setaria viridis): 70%; inhibition at 250 g/ha (redroot pigweed; Amaranthus retroflexus): 90%; inhibition at 250 g/ha (prickly sida; Sida spinosa): 70%; inhibition at 250 g/ha (velvetleaf; Abutilon theophrasti): 20%; inhibition at 250 g/ha (rice; Oryza sativa): 60%; inhibition at 250 g/ha (wheat; Triticum aestivum): 0%; inhibition at 250 g/ha (corn; Zea mays): 0%; inhibition at 250 g/ha (soybean; Glycine max): 0%
CCSC(=O)Oc1c(C(=O)c2ccc(S(C)(=O)=O)c(C(=O)OC)c2Cl)cnn1C [compound 27] | 95% | 70% | 90% | 100% | 80% | 100% | 80% | 80% | 10% | 40% | 100% | 95% | 98% | 100% | 100% | 95% | 90% | 10% | 0% | 0% | –
CSC(=O)Oc1c(C(=O)c2ccc(S(C)(=O)=O)c(C3=NOCC3)c2C)cnn1C [compound 40] | 90% | 70% | 90% | 95% | 80% | 95% | 90% | 70% | 0% | 10% | 100% | 100% | 100% | 100% | 85% | 90% | 90% | 10% | 0% | 60% | –
CCOc1c(S(C)(=O)=O)ccc(C(=O)c2cnn(CC)c2OC(=O)SCC)c1C [compound 58] | 90% | 70% | 98% | 95% | 98% | 100% | 100% | 80% | 40% | 0% | 60% | 100% | 70% | 90% | 70% | 10% | 70% | 0% | 0% | 0% | –
CCOC(=O)c1c(S(C)(=O)=O)ccc(C(=O)c2cnn(CC)c2OC(=O)SCC)c1Cl [compound 59] | 80% | 80% | 70% | 90% | 80% | 70% | 75% | 50% | 10% | 0% | 100% | 100% | 100% | 100% | 98% | 100% | 80% | 10% | 0% | 10% | –
CCCOC(=O)c1c(S(C)(=O)=O)ccc(C(=O)c2cnn(CC)c2OC(=O)SCC)c1Cl [compound 60] | 80% | 70% | 50% | 95% | 90% | 60% | 70% | 70% | 0% | 0% | 100% | 100% | 60% | 95% | 70% | 60% | 40% | 0% | 0% | 20% | –
CCOC(=O)c1c(S(C)(=O)=O)ccc(C(=O)c2cnn(CC)c2OC(=O)SCC)c1C [compound 61] | 100% | 95% | 80% | 98% | 98% | 100% | 95% | 90% | 60% | 50% | 100% | 100% | 100% | 100% | 80% | 90% | 85% | 30% | 0% | 20% | –
